Source: patent US11667678B2, “Peptides for the treatment of COVID-19” (priority 2019, dated 2023)

Assays:
Type in all cases: cell-based
[1] = test system: human A549 lung cells challenged with UK variant (Alpha or N501Y) SARS-CoV-2 spike S1
[2] = test system: human A549 lung cell line stimulated with Omicron variant SARS-CoV-2 spike S1
[3] = test system: human A549 lung cells challenged with South Africa variant (E484K) SARS-CoV-2 spike S1
[4] = test system: human A549 lung cells challenged with Delta variant SARS-CoV-2 spike S1

Compound: CC(C)=CCO [prenol]
- IL-6 promoter-driven luciferase activity (reporter activity) [1]: significant inhibition
- Omicron variant spike S1-induced expression of TNFα and IL-1β (mRNA and promoter-luciferase activity) [2]: Significant inhibition
- IL-6 promoter-driven luciferase activity (reporter activity) [3]: significant inhibition
- IL-6 promoter-driven luciferase activity (reporter activity) [4]: significant inhibition

Compound: O=C(O)c1ccc(O)cc1 [4HB, 4-hydroxybenzoate]
- IL-6 promoter-driven luciferase activity (reporter activity) [1]: significant inhibition
- Omicron variant spike S1-induced expression of TNFα and IL-1β (mRNA and promoter-luciferase activity) [2]: Significant inhibition
- IL-6 promoter-driven luciferase activity (reporter activity) [3]: significant inhibition
- IL-6 promoter-driven luciferase activity (reporter activity) [4]: significant inhibition

Compound: EDLFYQ (SPIDAR peptide) [wtSPIDAR]
- IL-6 promoter-driven luciferase activity (reporter activity) [1]: significant inhibition
- Omicron variant spike S1-induced expression of TNFα and IL-1β (mRNA and promoter-luciferase activity) [2]: Significant inhibition
- IL-6 promoter-driven luciferase activity (reporter activity) [3]: significant inhibition
- IL-6 promoter-driven luciferase activity (reporter activity) [4]: significant inhibition
